Data on 5 compounds can be found in US8575193B2, “N-substituted tetrahydroisoquinoline/isoindoline hydroxamic acid compounds” (4SC AG, priority 2008, dated 2013).

Counter-ions that a name gives are not always drawn.

Format in all cases: biochemical
One assay concerns the target T1, rHDAC6 (Homo sapiens, UniProt Q9UBN7).
T1 construct: FLAG; made in house
T1 sequence (Q9UBN7 1-1215): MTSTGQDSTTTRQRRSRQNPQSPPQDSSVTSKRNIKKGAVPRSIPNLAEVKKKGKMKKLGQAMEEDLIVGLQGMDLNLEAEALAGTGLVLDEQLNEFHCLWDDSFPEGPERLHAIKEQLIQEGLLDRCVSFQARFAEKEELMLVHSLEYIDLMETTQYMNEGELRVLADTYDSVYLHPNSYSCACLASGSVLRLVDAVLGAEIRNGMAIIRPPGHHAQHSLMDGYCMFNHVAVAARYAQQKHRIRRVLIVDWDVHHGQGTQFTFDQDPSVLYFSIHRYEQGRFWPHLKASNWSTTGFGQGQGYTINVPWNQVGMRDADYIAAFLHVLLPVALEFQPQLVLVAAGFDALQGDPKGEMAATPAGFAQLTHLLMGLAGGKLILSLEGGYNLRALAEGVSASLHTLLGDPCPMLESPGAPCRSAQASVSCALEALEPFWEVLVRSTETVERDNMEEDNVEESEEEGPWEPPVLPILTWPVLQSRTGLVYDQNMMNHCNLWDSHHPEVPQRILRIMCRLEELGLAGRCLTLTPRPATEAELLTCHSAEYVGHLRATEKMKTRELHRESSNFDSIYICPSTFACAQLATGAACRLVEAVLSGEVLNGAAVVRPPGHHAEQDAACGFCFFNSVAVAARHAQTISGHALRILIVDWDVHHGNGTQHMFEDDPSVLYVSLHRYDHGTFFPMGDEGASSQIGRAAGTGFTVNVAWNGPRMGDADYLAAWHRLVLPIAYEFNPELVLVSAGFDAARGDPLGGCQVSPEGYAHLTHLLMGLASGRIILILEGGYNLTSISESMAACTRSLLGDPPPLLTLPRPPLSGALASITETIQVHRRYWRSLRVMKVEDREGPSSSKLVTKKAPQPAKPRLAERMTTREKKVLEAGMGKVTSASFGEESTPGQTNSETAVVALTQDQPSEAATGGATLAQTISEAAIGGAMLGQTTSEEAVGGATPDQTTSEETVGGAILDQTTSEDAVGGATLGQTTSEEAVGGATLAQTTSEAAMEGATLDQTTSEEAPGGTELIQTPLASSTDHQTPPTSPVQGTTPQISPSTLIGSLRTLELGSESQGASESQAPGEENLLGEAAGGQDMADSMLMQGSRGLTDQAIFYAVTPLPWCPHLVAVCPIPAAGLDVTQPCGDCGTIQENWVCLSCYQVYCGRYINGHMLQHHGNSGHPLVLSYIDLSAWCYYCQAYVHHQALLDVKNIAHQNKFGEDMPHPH
In words: rHDAC6 enzymatic assay (recombinant FLAG-HDAC6). The note with it: FLAG-HDAC6 from HEK293; 10 μM Ac-NH-GGK(Ac)-AMC, 3 h at 30° C.; read-out: rHDAC6 [pIC50] (converted). An excerpt:
(§1) Human HDAC1 and HDAC6 fused with the FLAG epitope are stably expressed in HEK293 cells while human HDAC3 and HDAC8 fused with the FLAG epitope are overexpressed in baculo-virus infected insect (Sf21) cells. To ensure stability of FLAG-HDAC3 the SMRT protein is co-expressed in the corresponding insect cells. […] FLAG-HDAC3 and FLAG-HDAC8 are also purified by M2-agarose affinity chromatography after mass cultivation of the insect cells and cell lysis.
(§2) The HDAC enzyme activity assay is done as described by Wegener et al. (Chem. & Biol. 10, 61-68, 2003). Briefly 40 μl of a 1:100 dilution (=0.4 μl) nuclear HeLa extract (mixture of class I and II HDACs), 29 μl enzyme buffer (15 mM Tris HCl pH 8.1, 0.25 mM EDTA, 250 mM NaCl, 10% v:v glycerol) and 1 μl test compound are added to a well of a 96 well microtiter plate and reaction started by addition of 3 μl substrate (Ac-NH-GGK(Ac)-AMC; final concentration 25 μM and final volume […]). […] After incubation at room temperature for further 40 min, fluorescence is measured using a Wallac Victor 1420 multilabel counter (Ex 355 nm, Em 460 nm) for quantification of AMC (7-amino-4-methylcoumarin) generated by trypsine cleavage of the deacetylated peptide. […] The corresponding pIC50 values of the compounds for HDAC inhibitory activity are determined from the concentration-effect curves by means of non-linear regression (Graphpad Prism software).
(§3) The HDAC1, HDAC3 and HDAC6 enzymatic assays are done with slight modifications with recombinant FLAG-HDAC1 and FLAG-HDAC6 proteins isolated from HEK293 cell lysates or recombinant FLAG-HDAC3 isolated from insect cells, respectively. The HDAC8 enzymatic assay using recombinant FLAG-HDAC8 isolated from insect cells is done with a different substrate. About 4.5 ng/well FLAG-HDAC1 and 3.1 ng/well FLAG-HDAC6 (dependent on batches and specific activity) are incubated with 6 μM or 10 μM Ac-NH-GGK(Ac)-AMC substrate, respectively, for 3 h at 30° C. About 1.7 ng/well FLAG-HDAC3 is incubated with 6 μM Ac-NH-GGK(Ac)-AMC substrate for 2 h at 30° C., while approximately 130 ng/well FLAG-HDAC8 is incubated with 50 μM Ac-RHK(Ac)K(Ac)-AMC substrate for 3 h at 30° C. Termination of the reaction and all further steps are done as described for HeLa cell nuclear extracts as a source for HDAC enzymatic activity. The corresponding pIC50 values of the compounds for HDAC1, HDAC3, HDAC6 and HDAC8 inhibitory activity are determined from the concentration-effect curves by means of non-linear regression.

In another assay the target is T2, rHDAC1 (Homo sapiens, UniProt Q13547).
T2 construct: FLAG; made in house
T2 sequence (Q13547 whole entry): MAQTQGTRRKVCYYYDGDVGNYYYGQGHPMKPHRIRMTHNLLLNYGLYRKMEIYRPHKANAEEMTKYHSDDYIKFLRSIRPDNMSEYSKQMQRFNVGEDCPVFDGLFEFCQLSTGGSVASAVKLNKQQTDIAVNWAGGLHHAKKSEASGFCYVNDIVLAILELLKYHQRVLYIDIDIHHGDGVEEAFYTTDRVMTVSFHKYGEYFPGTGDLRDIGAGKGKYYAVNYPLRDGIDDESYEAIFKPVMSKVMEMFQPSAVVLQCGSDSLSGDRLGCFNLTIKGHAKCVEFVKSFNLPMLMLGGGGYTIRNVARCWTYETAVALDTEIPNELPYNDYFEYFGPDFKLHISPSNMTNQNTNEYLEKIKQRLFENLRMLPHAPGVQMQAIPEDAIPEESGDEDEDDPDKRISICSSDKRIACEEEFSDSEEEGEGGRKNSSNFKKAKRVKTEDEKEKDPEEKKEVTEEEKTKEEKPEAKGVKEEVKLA
In words: rHDAC1 enzymatic assay (recombinant FLAG-HDAC1). The note with it: FLAG-HDAC1 from HEK293; 6 μM Ac-NH-GGK(Ac)-AMC, 3 h at 30° C.; read-out: rHDAC1 [pIC50] (converted).
Excerpt: as §1, §2, §3

The target of the next assay is T3, rHDAC8 (Homo sapiens, UniProt Q9BY41).
T3 construct: FLAG; made in house; host or cells: baculovirus-infected Sf21 insect cells
T3 sequence (Q9BY41 1-377): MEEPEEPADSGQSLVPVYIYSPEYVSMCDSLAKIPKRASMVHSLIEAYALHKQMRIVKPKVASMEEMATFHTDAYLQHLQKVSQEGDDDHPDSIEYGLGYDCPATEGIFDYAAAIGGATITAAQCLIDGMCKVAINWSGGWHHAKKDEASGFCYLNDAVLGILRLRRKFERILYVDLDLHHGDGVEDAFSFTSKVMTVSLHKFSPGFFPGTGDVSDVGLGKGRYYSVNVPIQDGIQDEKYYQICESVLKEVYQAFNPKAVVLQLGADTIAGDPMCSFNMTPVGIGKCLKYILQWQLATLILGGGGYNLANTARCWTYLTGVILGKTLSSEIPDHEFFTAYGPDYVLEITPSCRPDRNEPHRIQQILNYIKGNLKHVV
In words: rHDAC8 enzymatic assay (recombinant FLAG-HDAC8). To be noted: FLAG-HDAC8 from insect cells; 50 μM Ac-RHK(Ac)K(Ac)-AMC, 3 h at 30° C.; read-out: rHDAC8 [pIC50] (converted).
Excerpt: as §1, §2, §3

Turning to `COCCCOC(=O)N1CCc2cc(C(=O)NO)ccc2C1` [Example 6, 3-Methoxypropyl-6-(hydroxycarbamoyl)-3,4-dihydroisoquinoline-2(1H)-carboxylate], the IC50 at rHDAC6 is 100 to 1000 nM; at rHDAC1, 10000 to 100000 nM; at rHDAC8, 1000 to 10000 nM.

For the compound `O=C(NO)c1ccc2c(c1)CCN(C(=O)Cc1cccnc1)C2` [Example 8, N-Hydroxy-2-(pyridin-3-ylacetyl)-1,2,3,4-tetrahydroisoquinoline-6-carboxamide hydrochloride], the results for the IC50 on rHDAC6, at rHDAC1 and at rHDAC8 were 100 to 1000 nM, 10000 to 100000 nM and 1000 to 10000 nM, respectively.

For the compound `O=C(NO)c1ccc2c(c1)CCN(C(=O)C1CCOC1)C2` (stereo not drawn) [Example 13, N-Hydroxy-2-(tetrahydrofuran-3-ylcarbonyl)-1,2,3,4-tetrahydroisoquinoline-6-carboxamide], the results for the IC50 at rHDAC6, on rHDAC1 and at rHDAC8 were 100 to 1000 nM, 10000 to 100000 nM and 1000 to 10000 nM, respectively.

In the case of `O=C(NO)c1ccc2c(c1)CCN(C(=O)C1CC1)C2` [Example 16, N-Hydroxy-2-(cyclopropylcarbonyl)-1,2,3,4-tetrahydroisoquinoline-6-carboxamide], the IC50 is 1 to 100 nM on rHDAC6, 100 to 10000 nM at rHDAC1 and 1000 to 10000 nM at rHDAC8.

`O=C(NO)c1ccc2c(c1)CCN(C(=O)C1CCC1)C2` [Example 3, 2-(Cyclobutylcarbonyl)-N-hydroxy-1,2,3,4-tetrahydroisoquinoline-6-carboxamide]: the IC50 at rHDAC6 was 1 to 100 nM; at rHDAC1 it was 100 to 10000 nM; on rHDAC8 it was 1000 to 10000 nM.
